Patent US12662672B2, “Method of promoting survival and/or function of a motor neuron and related agents, uses and methods” (Agency for Science, Technology and Research, priority 2019, dated 2026)

Legend:
mitochondrial Complex I = experiment: Complex I activity in ALS MNs; assay type: cell-based, human; settings: day 31, C12
Method: Cell lysates were prepared using Complex I Enzyme Activity Microplate Assay Kit (Abcam), following the manufacturer's instructions. Activity of Complex I was recorded, normalized and quantified based on manufacturer's instructions. Biological triplicates were performed with a minimum of 3 technical replicates each.

ALS MNs [1] = experiment: Neuronal morphology (soma size, primary neurites) in ALS MNs; assay type: cell-based, human; settings: for number of primary neurites / soma size: day 31; for neuronal morphologies: day 31, NAM 0.5 mM, C12 5 μM, Riluzole 5 μM, Edaravone 100 μM, siRNA
Method: Cells were fixed in 4% paraformaldehyde for 15 minutes, permeabilized in 0.1% Triton X-100 for 15 minutes and blocked in buffer containing 5% FBS and 1% BSA for an hour at room temperature. Primary antibodies (Table S4) were diluted in blocking buffer and incubated overnight at 4° C. Cells were washed thrice in PBS. The respective secondary antibodies were diluted 1:1500 in blocking buffer and incubated at room temperature, in the dark, for 90 minutes. DAPI was used at 0.1 μg/ml to visualize cellular nuclei.
Images were acquired using the high content microscope Phenix (Perkin Elmer) using the 20× air objective. Image analyses including cell counts and intensity measurements were performed using Columbus (Perkin Elmer).
For primary neurites analysis, neuronal projections from the soma size was determined based on SMI-32 staining. For soma size analysis, cellular nuclei were identified by DAPI, and the cytoplasmic area surrounding the nucleus was determined based on SMI-32 staining. Soma size area was measured by image analysis software (ImageJ, NIH) based on the cytoplasmic area surrounding the nucleus, excluding neuronal projections.

ALS MNs [2] = experiment: Motor neuron survival assay (ISL1+ MNs) in ALS iPSC-derived MNs; assay type: cell-based, human; settings: for MN survival (ISL1+ MNs): ALS MNs, treatment from day 28, NAM 0.5 mM, C12 5 μM, Riluzole 5 μM, Edaravone 100 μM, siRNA 10 pmol
Description: Cultures were then fixed with 4% PFA on Day 25, 28, 31 and 35 respectively for quantification of motor neuron survival. Fixed cultures were stained with the motor neuron marker ISL1, and cellular nuclei were counterstained with DAPI before imaging on the high content microscope Phenix (Perkin Elmer). Percentage of ISL1+ cells was normalized to total nuclei number. To calculate normalized survival index, the percentage of ISL1+/DAPI at day 25 was arbitrary set as 1.0, and motor neuron survival on later days were in turn normalized to day 25 cultures.
(§1) Motor neuron cultures at day 27 were dissociated with Accutase and seeded at 2 million cells per well in a 6-well plate. At day 28, non-targeting siRNA or siRNAs were individually complexed with Lipofectamine RNAiMAX following manufacturer's instructions and added to the motor neuron cultures. For each well, 10 pmol of siRNAs and 8 μl of Lipofectamine RNAiMAX were used. Cells were either harvested for RNA and protein analyses, fixed for immunostaining or metabolic flux analysis were performed 3 days after siRNA transfection.

ALS MNs [3] = experiment: Metabolic flux analysis, Glycolysis stress assay (ECAR) in ALS MNs; assay type: cell-based, human; settings: for glycolysis: C12 5 μM, siRNA 3 days
Method: as §1

[4] = test system: mitochondrial acetyl-lysine proteins; experiment: Western blot of acetyl-lysine proteins in purified mitochondrial extracts of ALS MNs; assay type: cell-based, human; settings: panel of ALS MNs, 5 μM C12, day 31
Method: (§2) Protein lysates were resolved in 12% SDS-PAGE gels or 4-20% precast gels in Tris-Glycine-SDS buffer. Proteins were then transferred to a nitrocellulose membrane and blocked with 5% milk in TBST buffer. Primary antibodies were diluted in 5% milk and incubated with the membranes overnight at 4° C. Membranes were washed thrice in TBST buffer. The corresponding horseradish peroxidase secondary antibodies (Life Technologies) were then diluted 1:5000 in 5% milk and incubated at room temperature for 90 minutes. Blots were washed thrice before exposing to ECL for imaging.
(§3) Mitochondria from motor neuron cultures were isolated using the MACS technology. Motor neurons culture were first Accutase and wash twice with PBS before resuspending in ice cold Lysis buffer. The cells were then homogenized with a dounce homogenizer (Pestle B) 15 strokes. The homogenate was diluted with 1× separation buffer based on manufacturer's instructions. Anti-TOM22 were added to magnetically label the mitochondria before incubating at 4° C. for 1 hour. The cells were then washed twice and filtered prior to loading into the separation column (LS column) that was attached to a magnetic stand (all from Miltenyi Biotec). After three rounds of washing, the column was removed from the magnetic stand and labelled mitochondria were eluted in storage buffer for downstream applications.

spliced XBP1 (sXBP1) = experiment: qPCR of ER stress transcript spliced XBP1 in ALS MN cultures; assay type: cell-based, human; settings: ALS MNs, day 31; C12 5 μM, Riluzole 5 μM, Edaravone 100 μM
Method: (§4) Cells were harvested in Trizol reagent for RNA extraction following manufacturer's instructions. Purified RNA was converted to cDNA using the High-Capacity cDNA Reverse Transcription kit, and quantitative PCR (qPCR) was performed on the QuantStudio 5 Real-Time PCR System using PowerUp™ SYBR™ Green Master Mix (all from Applied Biosystems). Gene expressions were normalized to HPRT and ACTB expression unless otherwise stated.

ALS MNs [5] = experiment: Metabolic flux analysis, MitoStress assay (OCR) in ALS MNs; assay type: cell-based, human; settings: for ATP production / basal respiration / spare respiratory capacity: NAM 0.5 mM, siRNA 3 days; for ATP production: C12 5 μM; for mitochondrial respiration / metabolic profile: day 31, C12 5 μM, Riluzole 5 μM, Edaravone 100 μM
Method: (§5) After dissociating with Accutase, cells were blocked with solution containing phosphate-buffered saline, 0.5% bovine serum albumin (BSA) and 2 mM EDTA. The cells were then incubated with CD171-APC antibody (Miltenyi Biotec) and PSA-NCAM-APC antibody (Miltenyi Biotec) for 10 mins at 4° C. After washing, the cells were then incubated with anti-APC microbeads for 15 minutes at 4° C. The cells were then washed twice and filtered prior to loading into the separation column (LS column) that was attached to a magnetic stand (all from Miltenyi Biotec). After three rounds of washing, the column was removed from the magnetic stand and labelled cells were eluted in culture media for replating.
as §1

total MnSOD = experiment: Western blot of total MnSOD protein levels in C12-treated MNs; assay type: cell-based, human; settings: BJ-SOD1^L144F MNs, increasing doses of C12, day 31
Method: as §2

SIRT1 = target: T1, SIRT1 (Homo sapiens, UniProt Q96EB6); experiment: Cellular thermal shift assay (CETSA), SIRT1; settings: 20 μM C12, 1 hour, intact HEK293T cells, 48-68° C.
T1 sequence (Q96EB6 1-747): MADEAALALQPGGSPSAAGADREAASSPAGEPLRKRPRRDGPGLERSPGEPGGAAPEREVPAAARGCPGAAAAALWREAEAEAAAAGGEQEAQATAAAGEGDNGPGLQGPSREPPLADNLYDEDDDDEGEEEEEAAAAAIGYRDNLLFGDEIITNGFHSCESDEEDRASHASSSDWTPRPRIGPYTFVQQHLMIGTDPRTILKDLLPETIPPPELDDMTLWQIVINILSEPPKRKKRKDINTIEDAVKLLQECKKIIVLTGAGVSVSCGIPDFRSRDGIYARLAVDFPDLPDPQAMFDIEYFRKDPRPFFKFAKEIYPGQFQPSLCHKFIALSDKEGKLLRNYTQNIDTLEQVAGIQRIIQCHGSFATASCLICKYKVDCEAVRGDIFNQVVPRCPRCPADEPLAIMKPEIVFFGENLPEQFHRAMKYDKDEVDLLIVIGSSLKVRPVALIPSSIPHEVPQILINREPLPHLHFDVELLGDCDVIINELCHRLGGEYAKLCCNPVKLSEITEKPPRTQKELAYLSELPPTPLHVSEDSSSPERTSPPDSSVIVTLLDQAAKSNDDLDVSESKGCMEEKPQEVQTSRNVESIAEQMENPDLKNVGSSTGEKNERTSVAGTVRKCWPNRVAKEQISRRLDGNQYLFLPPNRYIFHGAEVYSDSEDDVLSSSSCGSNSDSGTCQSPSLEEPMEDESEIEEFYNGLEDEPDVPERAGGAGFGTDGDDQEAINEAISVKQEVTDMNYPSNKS
Method: CETSA was performed as previously described (3) and HEK293T cells were used to carry out the experiment. […] After the incubation, the cells were harvested, washed, pellet down and resuspended in 1 mL of PBS. Equal amounts of cell suspensions were aliquoted into Eppendorf tubes. The cell suspensions were then heated (48-68° C.) and lysed using 2 cycles of freeze-thawing. The soluble fractions were isolated and analyzed by Western blot analysis as described above.

SMA type I (1-38G) MNs = experiment: MitoStress assay in SMA type I MNs; assay type: cell-based, human; settings: 5 μM C12
CHOP = experiment: qPCR of ER stress transcript CHOP in ALS MN cultures; assay type: cell-based, human; settings: ALS MNs, day 31; C12 5 μM, Riluzole 5 μM, Edaravone 100 μM
Method: as §4

ALS patients = settings: cited from earlier work
ALS MNs [6] = experiment: Mitochondrial NAD+ quantification in ALS iPSC-derived MNs; assay type: cell-based, human; settings: 0.5 mM NAM
Method: as §3
(§6) Mitochondria from motor neuron cultures (10 million cells) were isolated using the MACS technology (as described above). Mitochondrial NAD+ was prepared quantified using NAD/NADH-Glo™ Assay (Promega) following manufacturer's instructions. Briefly, isolated mitochondria were first diluted in PBS, bicarbonate base buffer and 1% DTAB in a ratio of 2:1:1. […] After heating, 0.5M of Trizma base was added to the suspension and levels of mitochondrial NAD^+ were recorded, normalized to NAD^+ standard curve and quantified based on manufacturer's instructions (Promega). […]

healthy MNs [7] = experiment: Metabolic flux analysis, MitoStress assay (OCR) in healthy MNs; assay type: cell-based, human
Method: as §5, §1

healthy MNs [8] = experiment: Mitochondrial NAD+ quantification in healthy iPSC-derived MNs; assay type: cell-based, human; settings: NAM supplementation
Method: as §3, §6

GCN5L1 = GCN5L1 knockdown by siRNA in iPSC-derived MNs (qPCR); assay type: cell-based, human; settings: day 31, vs non-targeting siRNA
Method: as §1, §4

Row | Compound | number of primary neurites (ALS MNs [1]) | soma size (ALS MNs [1]) | neuronal morphologies (ALS MNs [1]) | MN survival (ISL1+ MNs) (ALS MNs [2]) | glycolysis (ALS MNs [3]) | expression of ER stress transcript sXBP1 (spliced XBP1 (sXBP1)) | ATP production (ALS MNs [5]; SIRT3 lentivirus day 28-31) | mitochondrial respiration / metabolic profile (ALS MNs [5]) | expression of ER stress transcript CHOP (CHOP) | efficacy in ALS patients (ALS patients) | hyper-glycolytic metabolic profile / phenotype (ALS MNs [3]) | basal respiration (ALS MNs [5]; SIRT3 lentivirus day 28-31) | spare respiratory capacity (ALS MNs [5]; SIRT3 lentivirus day 28-31) | other results
1 | COc1ccc(-c2cc3ccc(O)cc3oc2=O)cc1 [C12, 7-hydroxy-3-(4′-methoxyphenyl) coumarin] | increased number of primary neurites | enlarged soma sizes | improved neuronal morphologies | promoted ALS MN survival | reduced glycolysis | significantly reduced | rescued ATP production back to healthy levels | promoted mitochondrial respiration | significantly reduced |  |  |  |  | mitochondrial Complex I activity (mitochondrial Complex I): increased mitochondrial Complex I activity; cytotoxicity (ALS MNs [2]; 10 μM C12, ALS MNs (BJ-SOD1^L144F)): cytotoxic; mitochondrial acetyl-lysine signals [4]: significantly reduced; total MnSOD protein levels (total MnSOD): remains unchanged; thermal stability of SIRT1 (SIRT1): but not another abundantly expressed sirtuin, SIRT1; metabolic defect (basal respiration, ATP production) (SMA type I (1-38G) MNs): did not improve the metabolic defect
2 | CC1=NN(c2ccccc2)C(=O)C1 [Edaravone] | no significant change | no significant change | did not improve neuronal morphologies | promoted ALS MN survival |  | significantly reduced |  | did not show any significant changes | significantly reduced | efficacy only in a small subset of ALS patients |  |  |  | 
3 | NC(=O)c1cccnc1 [NAM, Nicotinamide] |  |  | healthier neuronal morphologies | promoted ALS MN survival |  |  | significantly improved |  |  |  | corrected the hyper-glycolytic metabolic profile | significantly improved | significantly improved | mitochondrial NAD+ levels (ALS MNs [6]): significantly elevated; mitochondrial respiration (OCR parameters) (healthy MNs [7]): no significant effects; mitochondrial NAD+ levels (healthy MNs [8]): did not elevate
4 | Nc1nc2ccc(OC(F)(F)F)cc2s1 [Riluzole] |  |  |  |  |  | significantly reduced |  |  | significantly reduced | efficacious amongst bulbar-onset ALS patients and not in subjects with limb-onset ALS |  |  |  | lifespan extension (ALS patients; on average): 3 months
5 | GCN5L1 siRNA: siRNA against human GCN5L1, Dharmacon J-012580-09-0010 (AGAGGAGGCGAGAGGCUAU; listed as RNA, further chemistry not given here) |  |  | healthier neuronal morphologies | promoted survival | reduced |  | rescued ATP production back to healthy levels |  |  |  | reduced hyper-glycolytic phenotype | significant improvements | significant improvements | basal acidification (ALS MNs [3]): reduced; glycolytic capacity (ALS MNs [3]): reduces glycolytic capacity; GCN5L1 knockdown (GCN5L1): 60%; ATP production (ALS MNs [5]; SIRT3 lentivirus day 28-31, listed as siRNAs targeting GCN5L1): significant improvements
